The results in this text go back to patent EP1026237B1, “Use of an inhibitor of Tau/neurofilament protein kinase PK40” (Massachusetts Institute Of Technology, priority 1991, dated 1993).

“And” between values parts separate entries of the source, which are not always exact repeats. Identical values can stand only once.

In one assay the test system is PK40. Description: 32P kinase assay, ATP dependence and inhibition of PK40 activity with dephosphorylated NF-M as substrate. It counts as biochemical, bovine. The settings on record: for relative activity [%] of PK40: % of control. As to the method:
(§1) An alternative method for assaying the phosphorylating activity of the kinases was by ^32P assays. Radioactive assays in the same buffer system as for immunoassays contained 5 µg of HTP-purified native NF-triplet as substrate (3µg of substrate proteins other than NFs) and 150-250 cpm/pmole gamma-^32P-ATP. Incubation times were 15 minutes at 37°C for activities up to about 1 pmole/min/assay, since the assay responses were linear within these time intervals. Assays were stopped by cooling on ice, addition of 20 µl 25 mM EDTA and immediate transfer of the mixture onto glass filters (Whatman GF/A) wetted with 10% TCA/2% sodium pyrophosphate (PPA). The glass filters were washed twice for 1 hour and once for at least 3 hours in 10% TCA/2% PPA and finally in ethanol and were air-dried. Radioactivity was assessed by scintillation counting (Beckman LS 230) with 5 ml "Liquiscint" (National Diagnostics) for 20 minutes. Assays were routinely carried out in triplicate except for some duplicate assays in a few explicitly mentioned cases; a control assay lacking NFs was subtracted from the mean value.
The ATP dependence and inhibition of the activities of PK40 and PK36 were determined at 2 mM Mg^2+ with soluble dephosphorylated NF-M as second substrate to avoid uncertainties arising from the aggregation state of NF-triplet in suspension. The optima were at 0.5 - 1 mM ATP for both kinases. Apparent Km values for ATP of both kinases were estimated from Woolf-Hanes plots (Dixon and Webb, 1979) for a range of ATP concentrations sufficiently below the onset of inhibition. […] The apparent Km of PK36 was approximately 50 µM.

A further assay concerns PK36. Nature of the assay: 32P kinase assay, ATP dependence and inhibition of PK36 activity with dephosphorylated NF-M as substrate. It counts as biochemical, bovine. The settings on record: % of control. As to the method:
as §1, with “Incubation times were 15 minutes at 37°C for activities up to about 1 pmole/min/assay, since the assay responses were linear within these time intervals. Assays were stopped by cooling on ice, addition of 20 µl 25 mM EDTA and immediate transfer of the mixture onto glass filters (Whatman GF/A) wetted with 10% TCA/2% sodium pyrophosphate (PPA).” left out

The target of assay [1] is KSP-phosphorylating kinases. Description: Immuno-dotblot assay (SMI-31/SMI-34) of crude enzyme with dephosphorylated NF-triplet. Conditions: ATP [5mM]. Type of assay: biochemical, bovine. As to the method: The preferred method for the immunoassay for detecting KSP-phosphorylating kinases is as follows. Dephosphorylated NF-triplet protein was incubated with the 35-45% ammonium sulfate fraction of the brain supernatant (see section B.). Immuno-dotblot assays were performed in 50 mM HEPES, pH 7.0, 2 mM MgCl2, […], 2 mM DTT in a total volume of 30 µl with 5 µg of dephosphorylated native NF-triplet or 1.2 µg of dephosphorylated pure subunits NF-M or NF-H as substrates together with a control assay lacking NFs. After incubation at 37°C for 18 hours, assays were diluted to 100 µl with 10 mM PBS, pH 7.2, and aliquots of 50 µl were spotted on nitrocellulose (0.22µm, Schleicher and Schüll). Blots were blocked by 1 hour incubation with 3% BSA in 10mM PBS, pH 7.2, and washed once in 0.5% Triton-X100/10 mM PBS. Antibodies were diluted in sterile 10 mM PBS, pH 7.2, 0.5% Triton-X100, 10% fetal calf serum. Blots were incubated with SMI mAbs for at least 2 hours. The blots were then washed five times. Mouse mAbs were detected by reaction with horseradish-peroxidase-linked goat-anti-mouse antibody (Cappel Co.) in 1:200 dilution and by staining with 0.05% 4-chloro-1-naphthol (Sigma) and 0.05% H2O2 in 50 mM TBS, pH 7.5, 33% ethanol for 5-20 minutes. All incubations and washes were at room temperature. Incubations were sealed in plastic bags with 50 µl of solution/cm^2 membrane. […]

Assay [2] deals with kinase PK40 (bovine brain) (bovine). Description: cell-based or functional assay.

For the compound `[Cl-].[Na+]` [NaCl, sodium chloride], the “relative activity [%] of PK40” value with PK40 (NaCl 150mM, 15 min, 150000 µM) was 27% and 27±1.8%. The “relative activity [%] of PK36” value in the assay with PK36 (NaCl 150mM, 15 min, 150000 µM) was 40% and 40±0.8%.
ATP: the “relative activity [%] of PK40” value in the assay on PK40 (5mM Mg^2, 5mM ATP) came out at 78±7.1%. The “inhibition of PK40 by an excess of ATP” value with PK40 (ATP in relatively small excess over Mg^2+) is recorded as “strongly inhibited”. Moreover, the Km with PK40 (PK40, 2 mM Mg^2+, Woolf-Hanes plots, mean ± S.D. of three determinations at three NF-M concentrations, read-out: apparent Km value for ATP) came to 93 ± 12 µM. Moreover, the “relative activity [%] of PK36” value in the assay with PK36 (5mM Mg^2, 5mM ATP) was 38±2.2%. In assay [1], the “kinase activity (reconstitution of SMI-31 and SMI-34 epitopes)” value is “inhibited”.
In the case of Walsh inhibitor, in assay [2], the relative activity [%] at Walsh Inhibitor 1.5 [M, as printed] (% of the control) was determined as 107; the relative activity [%] at Walsh Inhibitor 4.5 [M, as printed] (% of the control) stood at 102; the relative activity [%] at Walsh Inhibitor 45 [M, as printed] (% of the control) amounted to 101.
